What was measured:
[1] = molecular target: Poly(ADP-Ribose)-Polymerase enzyme (PARP) (Homo sapiens, UniProt P09874, E70Q); assay: Fluorescence polarization PARP inhibition assay (Texas Red-labeled NAD+ tracer, histone, DNA); assay type: biochemical; details: standard (control) inhibitor of PARP, value given in materials table
Source text: (§1) The transfer of Texas Red-ADP ribose to protein substrates (histone and PARP itself) can be monitored through the rotational speed of the fluorescence tracer by the fluorescence polarization method. The assay measures the ability of the test compounds to inhibit the enzyme to transfer fluorescence labeled ADP to protein substrates.
(§2) A PARP baculovirus which encodes the amino acid sequence of FIG. 6 (SEQ ID NO: 1), was used to infect sf(9) cells. After PARP was expressed, it was partially purified by 40-70% ammonia sulfate cuts, and then re-suspended in TRIS buffer containing 25% (v/v) glycerol. […]
(§3) After incubation, this mixture and the control mixture were illuminated with plane polarized light having a wavelength of 590 nm, and the fluorescence polarization of the mixture and the control mixture were measured using a fluorescence filter set with an excitation wavelength of 590 nm, and an emission wavelength of 620 nm. The measurements were made with a fluorescence polarization plate reader in fluorescence polarization (FP) mode. These two measurements were then compared to determine whether the fluorescence polarization measurement of the mixture containing the compound or agent is less than that of the control. […]

[2] = molecular target: T1, Poly(ADP-Ribose)-Polymerase enzyme (PARP) (Homo sapiens, UniProt P09874); assay: as above; assay type: biochemical; details: known inhibitor of PARP used as control compound; inhibition curve in FIG. 3
T1 construct: IC50
T1 sequence (P09874 whole entry): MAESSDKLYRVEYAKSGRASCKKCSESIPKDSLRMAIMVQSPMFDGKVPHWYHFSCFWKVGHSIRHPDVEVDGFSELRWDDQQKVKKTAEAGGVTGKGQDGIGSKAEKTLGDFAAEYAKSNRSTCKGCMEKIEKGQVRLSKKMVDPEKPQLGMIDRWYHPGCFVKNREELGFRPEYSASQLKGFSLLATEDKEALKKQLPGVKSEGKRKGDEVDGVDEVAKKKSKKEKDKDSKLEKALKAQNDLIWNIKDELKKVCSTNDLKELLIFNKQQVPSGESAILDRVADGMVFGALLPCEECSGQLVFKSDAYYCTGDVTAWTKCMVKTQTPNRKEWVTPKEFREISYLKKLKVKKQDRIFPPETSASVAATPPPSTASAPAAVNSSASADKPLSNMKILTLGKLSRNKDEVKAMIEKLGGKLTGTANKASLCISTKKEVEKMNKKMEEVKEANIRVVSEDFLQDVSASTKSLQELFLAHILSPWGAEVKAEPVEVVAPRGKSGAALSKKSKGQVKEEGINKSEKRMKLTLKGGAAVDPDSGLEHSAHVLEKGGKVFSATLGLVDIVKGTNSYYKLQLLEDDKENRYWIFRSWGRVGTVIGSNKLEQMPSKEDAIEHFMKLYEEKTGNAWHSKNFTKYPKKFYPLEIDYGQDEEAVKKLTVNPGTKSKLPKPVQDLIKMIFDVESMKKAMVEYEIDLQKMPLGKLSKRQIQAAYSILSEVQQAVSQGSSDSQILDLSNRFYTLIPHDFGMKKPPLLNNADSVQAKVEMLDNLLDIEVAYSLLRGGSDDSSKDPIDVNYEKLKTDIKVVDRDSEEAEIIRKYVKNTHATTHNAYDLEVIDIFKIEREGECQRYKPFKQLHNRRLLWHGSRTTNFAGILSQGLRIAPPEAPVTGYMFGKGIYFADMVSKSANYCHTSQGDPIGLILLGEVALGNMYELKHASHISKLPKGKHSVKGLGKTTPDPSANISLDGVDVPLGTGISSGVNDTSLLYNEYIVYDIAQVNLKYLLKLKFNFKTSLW
Source text: as §1, §2, §3

Chain of Poly(ADP-Ribose)-Polymerase enzyme (PARP) (Homo sapiens, UniProt P09874, E70Q) (P09874 whole entry E70Q): as the sequence (P09874 whole entry) above, with E70Q counted along it

| SMILES | IC50 [1] | IC50 [2] |
| --- | --- | --- |
| O=c1[nH]c2ccccc2c2ccccc12 [6(5H)-phenanthridinone] | 200 nM | – |
| Oc1cccc2c(O)nccc12 [1,5-isoquinoline-diol] | – | 379 nM |

— US20040115710A1, “Method for assaying compounds that decrease the activity of poly (ADP-ribose)-Polymerase (PARP)” (Aventis Pharmaceuticals Inc., priority 2002, published 2004)
